US20250270507A1, “METHODS FOR PRODUCING CARTILAGE AND BONES” (Murdoch Children's Research Institute, priority 2021, published 2025)

What was measured:
MCRIi001-A-2 organoids = assay: Osteogenic differentiation conditions in a second iPSC line; type: cell-based, human; details: 10 nM T3 for 14 days before osteogenic culture; both osteogenic conditions
Description: Hypertrophic chondrocytes can transdifferentiate into osteoblasts and osteocytes in vivo (Yang et al., 2014; Zhou et al., 2014). To recapitulate this later stage of endochondral bone formation in vitro, hypertrophic chondrocyte pellets in orbital culture were rinsed in PBS then cultured in DMEM, high glucose, GlutaMAX Supplement, pyruvate (ThermoFisher), 20% FBS (ThermoFisher), 10 mM β-glycerophosphate, 50 μg/ml ascorbic acid 2-phosphate, 50 μg/ml sodium ascorbate, 100 nM dexamethasone (osteogenic differentiation media) for up to three weeks. […] Media was replaced every 2-3 days.
Cultured and in vivo grafted pellet organoids were fixed overnight at 4° C. in Confix (Australian Biostain) neutral-buffered formalin, then […] washed in 70% ethanol, and paraffin-embedded. After fixing, some in vivo grafted pellets were washed in water for 10 minutes then decalcified in 14% EDTA, pH 7.4 at 4° C. for 5 days before embedding. Serial 5 μm sections cut from the pellet centers were mounted on Superfrost Plus slides (Menzel-Gläser) and heated at 55° C. overnight. Sections were treated with xylene to remove the paraffin wax and an ethanol series comprising 100%, 90%, 70%, 50% ethanol then water to rehydrate the sections. Sections were stained with toluidine blue to detect a cartilage proteoglycan matrix or safranin O/fast green for cartilage and bone following standard protocols. […]

[1] = test system: iPSC-derived chondronoids (MCRIi019-A and MCRIi018-B); assay: Chondronoid maturation to hypertrophy with T3; type: cell-based, human
Description: Triiodothyronine (T3) is crucial for chondrocyte hypertrophy (Aghajanian et al., 2017) thus in some experiments differentiated chondrocytes were treated with 10 nM T3 (Sigma-Aldrich) for 10-21 days to induce chondrocyte hypertrophy. From day 20 (after 2 weeks of FGF2 treatment), differentiation/maturation continued in APEL2/5% PFHM (without FGF2) with medium replaced every 2-3 days. T3 was added when the pellets had consistent and even cartilage histology, which ranged between 4 and 6 weeks post-sclerotome chondrocyte differentiation. In some experiments, pellets were briefly treated with 0.25% trypsin/EDTA for 4 min at 37° C. with agitation to remove the small amount of non-cartilage tissue that occasionally remained on the surface of the chondrocyte pellets. These were allowed to recover in chondrocyte medium (APEL2/5% PFHM) for 1 week before analysis and/or T3 treatment and continued maturation.
Cultured and in vivo grafted pellet organoids were fixed overnight at 4° C. in Confix (Australian Biostain) neutral-buffered formalin, then […] washed in 70% ethanol, and paraffin-embedded. After fixing, some in vivo grafted pellets were washed in water for 10 minutes then decalcified in 14% EDTA, pH 7.4 at 4° C. for 5 days before embedding. Serial 5 μm sections cut from the pellet centers were mounted on Superfrost Plus slides (Menzel-Gläser) and heated at 55° C. overnight. Sections were treated with xylene to remove the paraffin wax and an ethanol series comprising 100%, 90%, 70%, 50% ethanol then water to rehydrate the sections. Sections were stained with toluidine blue to detect a cartilage proteoglycan matrix or safranin O/fast green for cartilage and bone following standard protocols. Osteogenic pellet sections were also stained with von Kossa to detect mineralization. Images were captured using a Leica DM 2000 LED microscope with Leica Application Suite (LAS) software version 4.9.0 or Zeiss Axio Imager Z2 with Zen 3.1 Blue Edition software.
Formalin fixed and paraffin-embedded sections were immunostained for collagen II (MAB8887; Sigma-Aldrich; 1:150 dilution), collagen I (LF68; Kerafast ENH018-FP; 1:100), collagen X (Cameron et al., 2015) (1:100), PRG4 (clone 9G3; Merck) (1:100) and Ku80 (Cell Signaling) (1:300). For collagen II staining, antigen retrieval used 2 mg/ml porcine pepsin (Sigma) freshly prepared in 1 M Tris/HCl, pH 2.0 for 30 minutes at 37° C., followed by digestion for 30 minutes at 37° C. with 0.2% hyaluronidase (Sigma-Aldrich) in PBS. Collagen X antigen retrieval involved heating to 60° C. in 10 mM Tris/1 mM EDTA/0.05% Tween-20, pH 9.0 (Tris/EDTA) for 30 min, cooling to room temperature for 30 minutes, followed by hyaluronidase digestion and collagen I and Ku80 staining followed antigen retrieval at 60° C. in Tris/EDTA as above. Sections to be stained with Ku80 were then permeabilized with 0.05% Triton X-100. Sections were blocked with 3% BSA in PBS for 1 hour at room temperature, then incubated with primary antibodies in 1% BSA in PBS for 16 hours at 4° C. Appropriate species specific Alexa Fluor 488 and 594 secondary antibodies (ThermoFisher) were diluted 1:200 in 1% BSA in PBS with 2.5 μg/ml DAPI, and sections incubated for 1 hour at room temperature. Slides were washed with PBS and coverslips mounted using Shandon Immumount (ThermoFisher). Images were captured as described above. For collagen X intracellular colocalization studies sections were treated with 0.2% hyaluronidase at 37° C. for 30 minutes then permeabilized with 0.05% Triton X-100. The collagen X antibody was used at 1:100, 58K (PA1-9000; ThermoFisher) at 1:50, GRP94 (PA5-18534; ThermoFisher) 1:200 and LAMP2 (ab25631; Abcam) 1:50. Images were captured on a Zeiss LSM900 Airyscan 2 confocal microscope with Zen 3.1 Blue Edition software. […]

[2] = T3 from day 48 to day 69, RNAseq

Which results are given for N[C@@H](Cc1cc(I)c(Oc2ccc(O)c(I)c2)c(I)c1)C(=O)O [T3, Triiodothyronine]?
von Kossa staining in organoids pre-treated v not pre-treated (MCRIi001-A-2 organoids): more extensive and more intense von Kossa staining; spontaneous maturation to hypertrophic chondrocytes ([1]; T3 from day 48 to day 69): enhanced; expression of canonical cartilage genes (COL2A1, COL9A1, COL11A1, SOX9, SOX6, SOX5) [1, 2]: downregulated; expression of late hypertrophic cartilage markers (VEGFA, DMP1, HIF1A, MMP13, ALPL) [1, 2]: enhanced expression; expression of ALPL, FOSL2, VEGFA, BMP7 and DMP1 ([1]; compared with spontaneous hypertrophy): only upregulated after stimulation; chondronoid appearance by histology and immunostaining ([1]; day 69): appeared similar with and without T3; expression of sentinel cartilage genes (COL11A1, COL9A1, COL9A2, COL9A3, EPYC, MATN1, LUM, COMP, EDIL3) ([1]; day 69+T3, core matrisome RNAseq): downregulated
